# From patent EP3725763A1, “MYOCARDIAL REGENERATION PROMOTING COMPOUNDS, PREPARATION METHOD THEREOF, PHARMACEUTICAL COMPOSITION, AND THEIR USE” (priority 2019, dated 2020)
# Assay: MTT assay for cell viability testing
# Format: cell-based, rats
# Settings: rat; H9C2 cells, 48 hours treatment at the concentrations of Table 3 (0.4 to 25 µg/ml); DMSO group = 100%; Figure 1
# Experimental: 1.1: cell culture of H9C2 cell line
# H9C2 cell line is a cardiac myoblast derived from the rats and is purchased from Food Industry Research and Development Institute, Taiwan. The culture medium is 90% (v/v) Dulbecco's modified Eagle's medium with 4 mM L-glutamine (Gibco™, Cat.12800017) adjusted to contain 4.5g/L glucose and 1.5g/L sodium bicarbonate (Sigma, Cat.S5761) and 10% (v/v) fetal bovine serum (Gibco™, Cat.10437028). Incubate at 37°C in a 5% (v/v) CO2 in air atmosphere.
# 1.2: MTT assay for cell viability testing
# In order to find out the feasible concentration of compounds without cytotoxicity, cells was cultured to 90% confluency and cells were seeded in a 24-well plate at a concentration of 1.5*10^4 cell/well. […] After washing with PBS buffer (phosphate buffered saline), 0.5 mg/ ml of MTT (Thiazolyl Blue Tetrazolium Bromide; Sigma, Cat.M2128) was added and incubate the 24-well plate at 37°C for 4 hours. […] Then the supernatant was removed and 200 µL DMSO was added to dissolve the crystal. Mix each sample again using a pipette and read absorbance at 570 nm (the values are averages of triplicate). The value of the DMSO group is 100% to represent that the cell viability is 100%.
row,SMILES,viability at 48 h
1,O=C(O)/C=C/c1ccc(OC(=O)CCCCC(=O)O)cc1 [Compound 4],80 to 120%
2,O=C(/C=C/c1ccccc1)OCc1ccc(O)cc1 [Compound 21],80 to 120%
3,CC(=O)Oc1ccc(/C=C/C(=O)O)cc1 [Compound 28],80 to 120%
4,CC(=O)C(=O)Oc1ccc(/C=C/C(=O)O)cc1 [Compound 27],80 to 120%
5,Nc1ccc(/C=C/C(=O)O)cc1 [Compound 31],80 to 120%
6,O=C(/C=C/c1ccc2c(c1)OCO2)n1cccc1 [Compound 42],80 to 120%
7,O=C(O)/C=C/c1cccs1 [Compound 38],80 to 120%
8,O=C(O)/C=C/c1ccc(O)cc1O [Compound 24],80 to 120%
9,O=C(/C=C/c1ccsc1)c1ccc(O)cc1 [Compound 41],80 to 120%
10,CC(=O)Oc1ccccc1C(=O)Oc1ccc(/C=C/C(=O)O)cc1 [Compound 7],80 to 120%
11,O=C(O)/C=C/c1ccc(OC(=O)CCCC(=O)O)c(OC(=O)CCCC(=O)O)c1 [Compound 3],80 to 120%
12,O=C(O)/C=C/c1ccncc1 [Compound 36],80 to 120%
13,C=CCOc1ccc(/C=C/C(=O)c2sccc2N)c(OCC=C)c1 [Compound 40],80 to 120%
14,O=C(/C=C/c1ccc(O)c(O)c1)O[C@H](Cc1ccc(O)c(O)c1)C(=O)O [Compound 46],80 to 120%
15,Cc1ccc(/C=C/C(=O)c2sc(N)nc2C)s1 [Compound 44],80 to 120%
16,COC(=O)/C=C/c1ccc(OC(=O)Cc2cccc(Cl)c2)c(OC(=O)Cc2cccc(Cl)c2)c1 [Compound 11],80 to 120%
17,O=C(O)/C=C/c1ccsc1 [Compound 39],80 to 120%
18,O=C(O)/C=C/c1ccc(OC(=O)CCCC(=O)O)cc1 [Compound 1],80 to 120%
19,O=C(O)/C=C/c1cccnc1 [Compound 37],80 to 120%

row,SMILES,viability at 48 h
1,O=C(O)/C=C/c1ccc(OC(=O)CCCC(=O)O)c(O)c1 [Compound 2],80 to 120%
2,COC(=O)/C=C/C(=O)Nc1ccc(/C=C/C(=O)O)cc1 [Compound 14],80 to 120%
3,O=C(O)/C=C/c1ccc(OC(=O)c2cccnc2)cc1 [Compound 30],80 to 120%
4,COC(=O)CCCCC(=O)Oc1ccc(/C=C/C(=O)O)cc1 [Compound 5],80 to 120%
5,COC(=O)CCCCC(=O)Oc1ccc(/C=C/C(=O)O)cc1OC(=O)CCCCC(=O)OC [Compound 6],80 to 120%
6,O=C(O)/C=C/c1ccc(NC(=O)CCCC(=O)O)cc1 [Compound 13],80 to 120%
7,O=C(O)/C=C/c1ccc(OC(=O)Cc2cccc(Cl)c2)cc1 [Compound 9],80 to 120%
8,O=C(O)/C=C/c1ccc(NC(=O)c2ccccc2O)cc1 [Compound 33],80 to 120%
9,COC(=O)/C=C/c1ccc(OC(=O)c2ccccc2OC(C)=O)c(OC(=O)c2ccccc2OC(C)=O)c1 [Compound 29],80 to 120%
10,O=C(/C=C/c1ccccn1)c1ccccn1 [Compound 43],80 to 120%
11,CC(=O)Oc1ccccc1C(=O)N(C(=O)c1ccccc1OC(C)=O)c1ccc(/C=C/C(=O)O)cc1 [Compound 15],80 to 120%
12,COC(=O)/C=C/c1ccccc1 [Compound 17],80 to 120%
13,O=C(O)/C=C/c1ccc(OC(=O)Cc2cccc(Cl)c2)c(OC(=O)Cc2cccc(Cl)c2)c1 [Compound 10],80 to 120%
14,CC(C)(C)OC(=O)NCCCC(=O)Oc1ccc(/C=C/C(=O)O)cc1OC(=O)CCCNC(=O)OC(C)(C)C [Compound 12],80 to 120%
15,O=C(/C=C/c1ccc2c(c1)OCO2)Nc1ccc(O)cc1 [Compound 34],80 to 120%
16,Cc1ccc(/C=C/C(=O)c2cccc(NC(=O)/C=C/c3ccc4c(c3)OCO4)c2)s1 [Compound 35],80 to 120%
17,CC(=O)Oc1ccccc1C(=O)Oc1ccc(/C=C/C(=O)O)cc1O [Compound 8],80 to 120%
18,O=C(O)/C=C/C(=O)Nc1ccc(/C=C/C(=O)O)cc1 [Compound 32],80 to 120%
19,COC(=O)/C=C/c1ccc(O)c(O)c1 [Compound 18],80 to 120%
